The results in this text go back to patent US20220168392A1 (priority 2019, published 2022).

Square brackets hold non-standard residues; d marks the D form. * marks the point of attachment. 2Nal = N[C@@H](Cc1ccc2ccccc2c1)C(=O)O; Propionyl = CCC(=O)*; Sar = CNCC(=O)O

The test system of one experiment is healthy rhesus monkeys. The experiment is described as follows: Maximum platelet count to baseline in healthy rhesus monkeys, escalating doses. The class given is in vivo, rhesus monkey. Also on record: key to pharmacodynamics (PD) effect class of the dose (beneficial effects on survival): **: large pharmacodynamics (PD) effect; *: modest effect. The protocol:
(§1) A pilot PK/PD study was performed to evaluate the efficacy of RWJ-800088 in rhesus monkeys (Study No. 2016-2693—CiToxLAB North America). Rhesus monkeys (n=10/group, 5 male/5 female) were treated with vehicle or RWJ-800088 (a single dose of 30 mg/kg RWJ-800088) administered 24 hours post TBI gamma radiation (600 cGY). […] The ratio of the maximum platelet count to baseline following escalating doses of RWJ-800088 to healthy rhesus monkeys is as follows: 0.97±0.06× at 0.5 mg/kg, 1.08±0.15× at 2 mg/kg, 1.98±0.16× at 10 mg/kg, 2.9±0.03× at 20 mg/kg, and 3.83±0.11× at 40 mg/kg).
The ratio of the maximum platelet counts to the baseline platelet counts following single escalating doses of RWJ-800088 to mice, rats, dogs, rhesus monkeys and human healthy volunteers is shown in Table 5. The dose required to achieve a 2-3.5-fold elevation in humans is ˜100-fold lower compared to mice, ˜1,000-fold lower compared to rats and >10,000-fold lower compared to canines and NHPs. […] The species differences in potency has been described for other TPO mimetics in the literature and is attributed to differences in receptor affinity (Erickson-Miller C L, et al. Discovery and characterization of a selective, nonpeptidyl thrombopoietin receptor agonist. Exp. Hematol. 2005; 33:85-93). […] It is discovered that the dose of RWJ-800088 that produces a survival benefit and protects against vascular and organ injury is the dose that produces a 2-4 fold elevation of platelets (Table 6).

Experiment [1] relates to rhesus monkeys after TBI gamma radiation (600 cGY). The experiment is described as follows: Rhesus monkey whole body irradiation pilot PK/PD study. Format: in vivo. The protocol: as §1
Experiment [2] concerns female rats exposed to LD70 total body gamma radiation. The experiment can be described thus: Rat whole body irradiation study. Format: in vivo. The protocol:
FIGS. 16A-B show the percent survival in female SD Rats (n=8/group) administered RWJ-800088 (TPOm) at different time points and dose levels—FIG. 16A: 3000 μg/kg at 6, 24 and 48 hours post TBI (7.18 Gy), and FIG. 16B: 300 and 3000 μg/kg at 24 hours post TBI (7.18 Gy).
RWJ-800088 was administered at a 3000 μg/kg dose by SC injection to female rats (n=8) at 6, 24, or 48 hours and additionally 300 μg/kg dose at 24 hours after exposure to an LD70 total body dose of gamma radiation (Gammacell 3000 irradiator).

On to “methoxypolyethyleneglycol20000-propionyl-L-Isoleucyl-L-Glutamyl-Glycyl-L-Prolyl-L-Threonyl-L-Leucyl-L-Arginyl-L-Glutaminyl-L-2-Naphthylalanyl-L-Leucyl-L-Alanyl-L-Alanyl-L-Arginyl-Sarcosyl-Ne-(methoxypolyethyleneglycol20000-propionyl-L-Isoleucyl-L-Glutamyl-Glycyl-L-Prolyl-L-Threonyl-L-Leucyl-L-Arginyl-L-Glutaminyl-L-2-Naphthylalanyl-L-Leucyl-L-Alanyl-L-Alanyl-L-Arginyl-Sarcosyl-)-Lysinamide ({mPEG 20 kDa-Propionyl}-IEGPTLRQ[2Nal]LAAR[Sar]K-NH2; also: dimer: second identical mPEG-propionyl chain on Lys Nε of C-terminal lysinamide) [RWJ-800088]”, for which the “ratio of the maximum platelet count to baseline” value in the experiment with healthy rhesus monkeys (0.5 mg/kg) worked out at 0.97±0.06 ×; in the experiment with healthy rhesus monkeys (2 mg/kg), 1.08±0.15 ×; with healthy rhesus monkeys (10 mg/kg), 1.98±0.16 ×; with healthy rhesus monkeys (20 mg/kg), 2.9±0.03 ×; with healthy rhesus monkeys (40 mg/kg) it was 3.83±0.11 ×. The “NHP Max Platelet Ratio” value came out at 3.25 with healthy rhesus monkeys (CiToxLAB North America Study No. 2016-2693, dose 30000 μg/kg); 0.9 ± 0.1 with healthy rhesus monkeys (TOX9795/B201016-K013, dose 500 μg/kg); 1.1 ± 0.1 in the experiment on healthy rhesus monkeys (TOX9795/B201016-K013, dose 2000 μg/kg); 2.9 ± 0.0 with healthy rhesus monkeys (TOX9795/B201016-K013, dose 10000 μg/kg); 3.8 ± 0.1 in the experiment with healthy rhesus monkeys (TOX9795/B201016-K013, dose 40000 μg/kg). Further, the “Average of the Maximum Platelet Elevation/Baseline Platelet Counts” value in the experiment on healthy rhesus monkeys (Monkey, dose 40000 μg/kg) came to 3.83. Moreover, the “pharmacodynamics (PD) effect class of the dose (beneficial effects on survival)” value in the experiment with healthy rhesus monkeys (NHP, dose 30000 μg/kg) is reported as “*”. The “Dose for 2.0-4x Platelet Elevation in Healthy Subjects” value in the experiment on healthy rhesus monkeys (Rhesus) is given as at least 30 mg/kg. Besides, the Effects entry in experiment [1] (Rhesus, whole body irradiation, 30 mg/kg, whole wrapped cell: Enhanced survival, mitigation of thrombocytopenia, anemia) is recorded as “Enhanced survival,”; in experiment [2] (Rats, whole body irradiation, whole wrapped cell: Enhanced survival, mitigation against thrombocytopenia, anemia) it was “Enhanced survival,”. Further, in experiment [1] (irradiated animals, 30 mg/kg 24 hours post-TBI (FIG. 18B-D)), the “decrease in RBC, reticulocytes and WBC vs irradiated vehicle” value is on record as “less severe decrease”. Also, the “platelet counts, nadir and recovery” value in experiment [1] (sham or irradiated animals, 30 mg/kg 24 hours post-TBI (FIG. 18A)) was “beneficial effects on platelet counts”. Further, the “survival (animals surviving)” value in experiment [1] (single dose 30 mg/kg 24 hours post TBI 600 cGY, n=10/group (FIG. 17)) is reported as 9/10. The “survival vs vehicle and RWJ-800088 at 48 hours post-irradiation” value in experiment [2] (female rats, 3000 μg/kg SC at 6 and 24 hours post TBI (FIG. 16A)) is “significantly higher”. Besides, the “survival, 3000 μg/kg compared with 300 μg/kg” value in experiment [2] (female rats, 24 hours post irradiation (FIG. 16B)) is given as “substantially increased”.
